Experimental data reported in US20250243171A1, “QUINAZOLINE COMPOUNDS FOR TREATMENT OF DISEASE” (Arthrosi Therapeutics, Inc., priority 2021, published 2025).
Where a name gives a salt, the structure may show the parent alone.

Columns and labels:
Assay in all cases: EC50 assay: Ba/F3 stable cell proliferation (CCK-8, 72 h)
Format in all cases: cell-based
[1] = target: T1, Ba/F3 stable cells (Homo sapiens, UniProt P00533, DUP771-773, cells depend on it); conditions: Ba/F3-EGFR H773-V774insNPH cells
T1 construct: EC50 Ba/F3-EGFR H773-V774insNPH; other: Ba/F3-EGFR H773-V774insNPH cells, 72 h, CCK-8
T1 sequence (P00533 with tags, fused parts or gaps DUP771-773): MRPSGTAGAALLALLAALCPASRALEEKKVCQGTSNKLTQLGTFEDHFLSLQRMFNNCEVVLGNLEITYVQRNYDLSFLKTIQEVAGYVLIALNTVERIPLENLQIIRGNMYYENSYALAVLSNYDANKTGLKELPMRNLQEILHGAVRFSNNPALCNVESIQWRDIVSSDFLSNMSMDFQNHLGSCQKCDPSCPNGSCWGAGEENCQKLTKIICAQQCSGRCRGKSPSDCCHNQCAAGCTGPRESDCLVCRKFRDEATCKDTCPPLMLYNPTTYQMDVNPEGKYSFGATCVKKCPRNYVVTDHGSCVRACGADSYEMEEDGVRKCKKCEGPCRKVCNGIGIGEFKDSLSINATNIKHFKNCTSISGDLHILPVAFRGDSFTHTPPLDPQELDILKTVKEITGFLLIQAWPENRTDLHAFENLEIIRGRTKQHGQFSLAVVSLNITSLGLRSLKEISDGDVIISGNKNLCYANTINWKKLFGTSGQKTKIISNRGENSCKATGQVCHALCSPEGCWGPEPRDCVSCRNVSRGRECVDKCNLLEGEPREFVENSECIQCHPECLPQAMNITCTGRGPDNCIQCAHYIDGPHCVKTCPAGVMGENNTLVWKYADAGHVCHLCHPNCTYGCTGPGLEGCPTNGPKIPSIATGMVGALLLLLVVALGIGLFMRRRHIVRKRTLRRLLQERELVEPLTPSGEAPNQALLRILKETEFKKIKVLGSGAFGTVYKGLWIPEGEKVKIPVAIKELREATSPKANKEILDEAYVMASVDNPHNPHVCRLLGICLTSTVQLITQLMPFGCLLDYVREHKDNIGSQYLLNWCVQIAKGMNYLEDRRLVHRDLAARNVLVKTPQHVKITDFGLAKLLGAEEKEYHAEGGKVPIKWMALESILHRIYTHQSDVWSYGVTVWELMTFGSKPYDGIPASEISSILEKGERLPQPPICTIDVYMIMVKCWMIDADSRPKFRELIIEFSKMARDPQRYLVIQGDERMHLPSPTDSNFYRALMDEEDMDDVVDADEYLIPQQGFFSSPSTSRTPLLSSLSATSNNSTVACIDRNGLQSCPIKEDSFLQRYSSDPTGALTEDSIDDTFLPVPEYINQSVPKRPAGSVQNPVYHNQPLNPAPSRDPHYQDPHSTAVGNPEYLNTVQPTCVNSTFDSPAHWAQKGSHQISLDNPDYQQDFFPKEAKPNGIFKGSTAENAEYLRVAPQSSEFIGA
Procedure, shortened: (§1)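 Ba/F3 stable cells were seeded at 4,000 cells/90 μL/well in 96-well plates and held 2 h at 37° C. in 5% CO2, then given 10 μL of serially titrated compound (0.1% DMSO final). After 72 h at 37° C., CCK-8 reagent was added for 4 hours and absorbance read at 450 nm to derive EC50.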

[2] = target: T2, Ba/F3 stable cells (Homo sapiens, UniProt P04626, DUP772-775, cells depend on it); conditions: Ba/F3-HER2 A775-G776insYVMA cells
T2 construct: EC50 Ba/F3-HER2 A775-G776insYVMA; other: Ba/F3-HER2 A775-G776insYVMA cells, 72 h, CCK-8
T2 sequence (P04626 with tags, fused parts or gaps DUP772-775): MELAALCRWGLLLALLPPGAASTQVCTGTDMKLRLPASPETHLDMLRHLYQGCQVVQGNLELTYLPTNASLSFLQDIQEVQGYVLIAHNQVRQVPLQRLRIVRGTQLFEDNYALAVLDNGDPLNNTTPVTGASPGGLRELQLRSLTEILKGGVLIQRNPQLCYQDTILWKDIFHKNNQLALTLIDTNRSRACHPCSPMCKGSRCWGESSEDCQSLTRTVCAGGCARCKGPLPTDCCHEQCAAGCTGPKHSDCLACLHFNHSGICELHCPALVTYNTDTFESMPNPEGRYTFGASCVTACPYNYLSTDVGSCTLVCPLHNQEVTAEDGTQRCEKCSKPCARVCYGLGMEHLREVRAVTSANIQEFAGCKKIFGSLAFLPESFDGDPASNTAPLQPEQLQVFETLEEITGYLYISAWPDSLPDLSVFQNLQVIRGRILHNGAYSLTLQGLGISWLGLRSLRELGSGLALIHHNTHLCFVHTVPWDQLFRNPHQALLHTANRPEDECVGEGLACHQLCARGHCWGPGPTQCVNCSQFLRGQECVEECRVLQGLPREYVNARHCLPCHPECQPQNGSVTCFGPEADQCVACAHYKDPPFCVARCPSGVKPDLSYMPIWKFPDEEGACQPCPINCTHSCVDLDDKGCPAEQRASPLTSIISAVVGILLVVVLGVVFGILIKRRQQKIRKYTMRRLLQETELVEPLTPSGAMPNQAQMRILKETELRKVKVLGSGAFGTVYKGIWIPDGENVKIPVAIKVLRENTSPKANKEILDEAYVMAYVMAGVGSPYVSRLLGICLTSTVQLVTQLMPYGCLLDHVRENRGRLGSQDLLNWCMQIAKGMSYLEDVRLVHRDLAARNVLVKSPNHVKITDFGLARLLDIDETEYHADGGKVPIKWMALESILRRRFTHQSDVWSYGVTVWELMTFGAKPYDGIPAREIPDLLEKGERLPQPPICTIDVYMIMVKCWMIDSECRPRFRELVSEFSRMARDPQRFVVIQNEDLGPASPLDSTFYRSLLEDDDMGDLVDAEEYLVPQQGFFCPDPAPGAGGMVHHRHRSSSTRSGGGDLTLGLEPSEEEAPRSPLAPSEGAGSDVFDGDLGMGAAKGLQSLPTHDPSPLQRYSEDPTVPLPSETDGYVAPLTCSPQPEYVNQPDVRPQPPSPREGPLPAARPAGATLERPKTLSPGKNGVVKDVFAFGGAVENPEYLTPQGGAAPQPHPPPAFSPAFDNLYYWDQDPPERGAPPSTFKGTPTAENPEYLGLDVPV
Procedure, shortened: as §1

[3] = target: T3, Ba/F3 stable cells (Homo sapiens, UniProt P00533, DUP767-769, cells depend on it); conditions: Ba/F3-EGFR V769-D770insASV cells
T3 construct: EC50 Ba/F3-EGFR V769-D770insASV; other: Ba/F3-EGFR V769-D770insASV cells, 72 h, CCK-8
T3 sequence (P00533 with tags, fused parts or gaps DUP767-769): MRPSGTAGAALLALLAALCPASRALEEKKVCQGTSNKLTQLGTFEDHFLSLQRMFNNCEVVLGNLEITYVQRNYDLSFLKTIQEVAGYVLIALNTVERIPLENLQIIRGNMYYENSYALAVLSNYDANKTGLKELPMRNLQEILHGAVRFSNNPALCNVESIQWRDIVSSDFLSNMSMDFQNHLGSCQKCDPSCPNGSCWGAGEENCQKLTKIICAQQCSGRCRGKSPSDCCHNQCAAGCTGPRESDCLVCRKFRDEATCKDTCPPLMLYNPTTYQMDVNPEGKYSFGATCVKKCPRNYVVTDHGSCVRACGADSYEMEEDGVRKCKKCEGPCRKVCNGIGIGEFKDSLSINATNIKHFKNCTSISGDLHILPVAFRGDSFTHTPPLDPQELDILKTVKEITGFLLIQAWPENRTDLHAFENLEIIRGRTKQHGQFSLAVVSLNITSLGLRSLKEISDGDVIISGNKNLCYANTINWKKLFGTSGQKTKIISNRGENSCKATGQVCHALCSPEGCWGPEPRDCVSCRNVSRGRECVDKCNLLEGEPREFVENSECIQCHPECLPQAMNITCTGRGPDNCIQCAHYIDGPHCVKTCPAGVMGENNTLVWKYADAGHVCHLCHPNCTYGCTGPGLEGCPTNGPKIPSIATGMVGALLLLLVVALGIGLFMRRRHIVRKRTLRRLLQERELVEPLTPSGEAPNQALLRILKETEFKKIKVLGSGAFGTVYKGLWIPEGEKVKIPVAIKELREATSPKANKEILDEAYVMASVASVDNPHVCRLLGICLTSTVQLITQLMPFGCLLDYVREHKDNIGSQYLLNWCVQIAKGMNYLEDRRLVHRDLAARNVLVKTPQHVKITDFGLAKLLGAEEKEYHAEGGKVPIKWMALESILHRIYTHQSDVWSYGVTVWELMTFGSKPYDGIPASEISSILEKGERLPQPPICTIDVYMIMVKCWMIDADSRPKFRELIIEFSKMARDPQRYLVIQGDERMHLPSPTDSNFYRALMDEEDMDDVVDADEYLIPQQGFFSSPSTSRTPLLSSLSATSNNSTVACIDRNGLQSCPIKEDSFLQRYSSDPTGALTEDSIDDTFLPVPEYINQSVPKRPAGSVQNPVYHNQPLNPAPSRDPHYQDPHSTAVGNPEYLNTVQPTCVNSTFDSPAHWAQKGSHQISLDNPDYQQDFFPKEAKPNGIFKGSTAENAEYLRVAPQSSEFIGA
Procedure, shortened: as §1

[4] = target: T4, Ba/F3 stable cells (Homo sapiens, UniProt P00533, INS763FQEA, cells depend on it); conditions: Ba/F3-EGFR A763-Y764insFQEA cells
T4 construct: EC50 Ba/F3-EGFR A763-Y764insFQEA; other: Ba/F3-EGFR A763-Y764insFQEA cells, 72 h, CCK-8
Procedure, shortened: as §1

[5] = target: T5, Ba/F3 stable cells (Homo sapiens, UniProt P00533, DUP768-770, cells depend on it); conditions: Ba/F3-EGFR D770-N771insSVD cells
T5 construct: EC50 Ba/F3-EGFR D770-N771insSVD; other: Ba/F3-EGFR D770-N771insSVD cells, 72 h, CCK-8
Procedure, shortened: as §1

[6] = target: T6, Ba/F3 stable cells (Homo sapiens, UniProt P00533, T790M/L858R, cells depend on it); conditions: Ba/F3-EGFR L858R-T790M cells
T6 construct: EC50 Ba/F3-EGFR L858R-T790M; other: Ba/F3-EGFR L858R-T790M cells, 72 h, CCK-8
T6 sequence (P00533 whole entry T790M/L858R): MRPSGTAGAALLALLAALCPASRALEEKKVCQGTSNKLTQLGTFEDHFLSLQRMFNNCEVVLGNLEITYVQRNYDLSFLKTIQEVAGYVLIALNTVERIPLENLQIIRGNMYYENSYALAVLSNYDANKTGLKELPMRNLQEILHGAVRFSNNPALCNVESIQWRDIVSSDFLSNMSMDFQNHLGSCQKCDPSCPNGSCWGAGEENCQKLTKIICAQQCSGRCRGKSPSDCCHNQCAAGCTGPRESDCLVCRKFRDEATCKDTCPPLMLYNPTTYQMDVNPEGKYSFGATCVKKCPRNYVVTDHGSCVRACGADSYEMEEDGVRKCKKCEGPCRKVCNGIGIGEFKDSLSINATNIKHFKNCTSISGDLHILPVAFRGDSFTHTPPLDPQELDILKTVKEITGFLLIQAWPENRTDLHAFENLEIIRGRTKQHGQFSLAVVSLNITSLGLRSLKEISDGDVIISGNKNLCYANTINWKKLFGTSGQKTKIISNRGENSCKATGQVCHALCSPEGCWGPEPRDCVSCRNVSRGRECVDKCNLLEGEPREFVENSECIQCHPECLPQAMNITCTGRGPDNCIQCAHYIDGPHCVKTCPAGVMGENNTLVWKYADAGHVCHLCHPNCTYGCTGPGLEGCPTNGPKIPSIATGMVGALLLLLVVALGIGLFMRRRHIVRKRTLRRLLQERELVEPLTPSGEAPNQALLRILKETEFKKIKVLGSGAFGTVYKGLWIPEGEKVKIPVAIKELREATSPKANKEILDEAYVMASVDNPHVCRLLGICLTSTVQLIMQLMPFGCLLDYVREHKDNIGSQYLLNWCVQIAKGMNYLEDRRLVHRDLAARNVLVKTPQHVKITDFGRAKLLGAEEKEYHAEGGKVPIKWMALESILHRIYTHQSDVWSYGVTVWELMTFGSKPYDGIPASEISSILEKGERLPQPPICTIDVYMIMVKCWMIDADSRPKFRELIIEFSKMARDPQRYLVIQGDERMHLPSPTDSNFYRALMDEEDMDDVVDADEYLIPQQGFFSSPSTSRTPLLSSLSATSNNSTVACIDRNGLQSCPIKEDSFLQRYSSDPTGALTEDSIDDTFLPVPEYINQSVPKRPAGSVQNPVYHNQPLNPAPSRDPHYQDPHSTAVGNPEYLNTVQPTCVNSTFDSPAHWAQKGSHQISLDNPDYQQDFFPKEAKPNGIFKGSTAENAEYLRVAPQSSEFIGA
Procedure, shortened: as §1

Structure (SMILES) | EC50 [1] | EC50 [2] | EC50 [3] | EC50 [4] | EC50 [5] | EC50 [6]
COc1cc2ncnc(Nc3ccc(Cl)c(Cl)c3F)c2cc1C1CN(C#N)C1 [Compound 195, 3-(4-((3,4-dichloro-2-fluorophenyl)amino)-7-methoxy-quinazolin-6-yl)azetidine-1-carbonitrile] | > 1000 nM | 200 to 1000 nM | > 1000 nM | 200 to 1000 nM | > 1000 nM | 200 to 1000 nM
COc1cc2ncnc(Nc3ccc(Cl)c(Cl)c3F)c2cc1OC1CC(N(C)C#N)C1 (stereo not drawn) [Compound 196, N-(3-((4-((3,4-dichloro-2-fluorophenyl)amino)-7-methoxy-quinazolin-6-yl)oxy)cyclobutyl)-N-methylcyanamide] | 200 to 1000 nM | 200 to 1000 nM | ≤ 200 nM | ≤ 200 nM | 200 to 1000 nM | > 1000 nM
COc1cc2ncnc(Nc3ccc(Cl)c(Cl)c3F)c2cc1C1=CCCN(C#N)C1 [Compound 197, 5-(4-((3,4-dichloro-2-fluorophenyl)amino)-7-methoxy-quinazolin-6-yl)-3,6-dihydropyridine-1(2H)-carbonitrile] | > 1000 nM | > 1000 nM | > 1000 nM | 200 to 1000 nM | > 1000 nM | > 1000 nM
COc1cc2ncnc(Nc3ccc(Cl)c(Cl)c3F)c2cc1OC1CCCN(C#N)C1 (stereo not drawn) [Compound 198, 3-((4-((3,4-dichloro-2-fluorophenyl)amino)-7-methoxy-quinazolin-6-yl)oxy)piperidine-1-carbonitrile] | 200 to 1000 nM | > 1000 nM | 200 to 1000 nM | ≤ 200 nM | > 1000 nM | > 1000 nM
C=CC(=O)N1CCC(Oc2c(OC)cc3ncnc4c3c2NC(=O)N4c2ccc(Cl)c(Cl)c2F)CC1 [Compound 199, 9-((1-acryloylpiperidin-4-yl)oxy)-3-(3,4-dichloro-2-fluorophenyl)-8-methoxy-1H-pyrimido[4,5,6-de]quinazolin-2(3H)-one] | 200 to 1000 nM | 200 to 1000 nM | 200 to 1000 nM | ≤ 200 nM | 200 to 1000 nM | 200 to 1000 nM
C=CC(=O)N1CCC(Oc2c(OC)cc3ncnc4c3c2N(C)C(=O)N4c2ccc(Cl)c(Cl)c2F)CC1 [Compound 200, 9-((1-acryloylpiperidin-4-yl)oxy)-3-(3,4-dichloro-2-fluorophenyl)-8-methoxy-1-methyl-1H-pyrimido[4,5,6-de]quinazolin-2(3H)-one] | 200 to 1000 nM | > 1000 nM | 200 to 1000 nM | ≤ 200 nM | > 1000 nM | > 1000 nM
C=CC(=O)N1CCC(Oc2c(OC)cc3ncnc4c3c2NC(=O)N4c2ccc(Cl)c(Cl)c2F)C1 (stereo not drawn) [Compound 205, 9-((1-acryloylpyrrolidin-3-yl)oxy)-3-(3,4-dichloro-2-fluorophenyl)-8-methoxy-1H-pyrimido[4,5,6-de]quinazolin-2(3H)-one] | > 1000 nM | > 1000 nM | > 1000 nM | 200 to 1000 nM | > 1000 nM | > 1000 nM
C=CC(=O)N1CC=C(c2c(OC)cc3ncnc4c3c2N(C)C(=O)N4c2ccc(Cl)c(Cl)c2F)CC1 [Compound 206, 9-(1-acryloyl-1,2,3,6-tetrahydropyridin-4-yl)-3-(3,4-dichloro-2-fluorophenyl)-8-methoxy-1-methyl-1H-pyrimido[4,5,6-de]quinazolin-2(3H)-one] | > 1000 nM | 200 to 1000 nM | 200 to 1000 nM | ≤ 200 nM | > 1000 nM | > 1000 nM
COc1cc2ncnc(Nc3ccc(Cl)c(Cl)c3F)c2c([N+](=O)[O-])c1OC1CCNCC1 [Compound 207, N-(3,4-dichloro-2-fluorophenyl)-7-methoxy-5-nitro-6-(piperidin-4-yloxy)quinazolin-4-amine hydrochloride] | 200 to 1000 nM | 200 to 1000 nM | 200 to 1000 nM | ≤ 200 nM | > 1000 nM | 200 to 1000 nM
C=CC(=O)N1CCC(Oc2c(OC)cc3ncnc(Nc4ccc(Cl)c(Cl)c4F)c3c2[N+](=O)[O-])CC1 [Compound 208, 1-(4-((4-((3,4-dichloro-2-fluorophenyl)amino)-7-methoxy-5-nitroquinazolin-6-yl)oxy)piperidin-1-yl)prop-2-en-1-one] | > 1000 nM | > 1000 nM | > 1000 nM | 200 to 1000 nM | > 1000 nM | > 1000 nM
C=CC(=O)N1CCC(Oc2c(OC)cc3ncnc4c3c2NC(=O)N4c2ccc(Cl)c(Cl)c2)CC1 [Compound 215, 9-((1-acryloylpiperidin-4-yl)oxy)-3-(3,4-dichlorophenyl)-8-methoxy-1H-pyrimido[4,5,6-de]quinazolin-2(3H)-one] | > 1000 nM | > 1000 nM | > 1000 nM | ≤ 200 nM | > 1000 nM | > 1000 nM
C=CC(=O)N1CCC(Oc2c(OC)cc3ncnc4c3c2C=C(C)N4c2ccc(Cl)c(Cl)c2F)CC1 [Compound 217, 1-(4-((4-(3,4-dichloro-2-fluorophenyl)-8-methoxy-5-methyl-4H-pyrido[2,3,4-de]quinazolin-7-yl)oxy)piperidin-1yl)prop-2-en-1-one] | 200 to 1000 nM | > 1000 nM | ≤ 200 nM | ≤ 200 nM | 200 to 1000 nM | 200 to 1000 nM

Other lines, results leading:

EC50 [1] | EC50 [2] | EC50 [3] | EC50 [4] | EC50 [5] | EC50 [6] | Structure (SMILES)
≤ 200 nM | > 1000 nM | ≤ 200 nM | ≤ 200 nM | ≤ 200 nM | ≤ 200 nM | C=CS(=O)(=O)NC1CC(Oc2cc3c(Nc4ccc(Cl)c(Cl)c4F)ncnc3cc2OC)C1 (stereo not drawn) [Compound 191, N-(3-((4-((3,4-dichloro-2-fluorophenyl)amino)-7-methoxyquinazolin-6-yl)oxy)cyclobutyl)ethenesulfonamide]
≤ 200 nM | 200 to 1000 nM | ≤ 200 nM | ≤ 200 nM | > 1000 nM | ≤ 200 nM | C=CS(=O)(=O)N1CCC(Oc2cc3c(Nc4ccc(Cl)c(Cl)c4F)ncnc3cc2OC)CC1 [Compound 192, N-(3,4-dichloro-2-fluorophenyl)-7-methoxy-6-((1-(vinylsulfonyl)piperidin-4-yl)oxy)quinazolin-4-amine]
200 to 1000 nM | > 1000 nM | 200 to 1000 nM | ≤ 200 nM | > 1000 nM | 200 to 1000 nM | C=CS(=O)(=O)N1CCC(Oc2cc3c(C(=O)c4ccc(Cl)c(Cl)c4F)ncnc3cc2OC)CC1 [Compound 193, (3,4-dichloro-2-fluorophenyl)(7-methoxy-6-((1-(vinylsulfonyl)piperidin-4-yl)oxy)quinazolin-4-yl)methanone]
200 to 1000 nM | > 1000 nM | ≤ 200 nM | ≤ 200 nM | > 1000 nM | > 1000 nM | COc1cc2ncnc(Nc3ccc(Cl)c(Cl)c3F)c2cc1OC1CCN(C#N)CC1 [Compound 194, 4-((4-((3,4-dichloro-2-fluorophenyl)amino)-7-methoxyquinazolin-6-yl)oxy)piperidine-1-carbonitrile]
≤ 200 nM | > 1000 nM | ≤ 200 nM | ≤ 200 nM | ≤ 200 nM | ≤ 200 nM | C=CC(=O)N1CC(Oc2c(OC)cc3ncnc4c3c2NC(=O)N4c2ccc(Cl)c(Cl)c2F)C1 [Compound 216, 9-((1-acryloylazetidin-3-yl)oxy)-3-(3,4-dichloro-2-fluorophenyl)-8-methoxy-1H-pyrimido[4,5,6-de]quinazolin-2(3H)-one]
≤ 200 nM | > 1000 nM | ≤ 200 nM | ≤ 200 nM | 200 to 1000 nM | 200 to 1000 nM | C=CC(=O)N1CCC(Oc2c(OC)cc3ncnc4c3c2C=CN4c2ccc(Cl)c(Cl)c2F)CC1 [Compound 218, 1-(4-((4-(3,4-dichloro-2-fluorophenyl)-8-methoxy-4H-pyrido[2,3,4-de]quinazolin-7-yl)oxy)piperidin-1-yl)prop-2-en-1-one]
≤ 200 nM | > 1000 nM | ≤ 200 nM | ≤ 200 nM | ≤ 200 nM | ≤ 200 nM | C=CS(=O)(=O)N1CCC(Oc2c(OC)cc3ncnc4c3c2NC(=O)N4c2ccc(Cl)c(Cl)c2F)CC1 [Compound 225, 3-(3,4-dichloro-2-fluorophenyl)-8-methoxy-9-((1-(vinylsulfonyl)piperidin-4-yl)oxy)-1H-pyrimido[4,5,6-de]quinazolin-2(3H)-one]
